{"source": "patent US6750224B1", "about": "“Antibacterial optically pure benzoquinolizine carboxylic acids, processes, compositions and methods of treatment” (priority 1999, dated 2004)", "key": {"[1]": {"conditions": "pH 6.8"}, "MRSA STA-4": {"tested_on": "MRSA STA-4", "experiment": "In-vitro antimicrobial activity test (MIC, NCCLS)", "type": "cell-based, Staphylococcus aureus", "description": "(§1) The test method was in accordance with the standard NCCLS protocol."}, "[2]": {"tested_on": "Mupirocin-resistant Staph STA-34", "experiment": "In-vitro antimicrobial activity test (MIC, NCCLS)", "type": "cell-based, Staphylococcus aureus", "description": "as §1"}, "[3]": {"tested_on": "human liver cell-line Hep-G2", "experiment": "Human liver cell line cytotoxicity assay (Minimum Toxic Dose)", "type": "cell-based", "conditions": "3 hours exposure, 4 days incubation, Almar blue", "protocol": "The procedure involved cultivation of cells of human liver cell-line Hep-G2 in DMEM medium containing 5% foetal bovine and exposure to various concentrations of trovafloxacin and S-(−)-Nadifloxacin for 3 hours. The drug containing medium was then replaced with a fresh medium and cells were incubated in 5% CO2 atmosphere at 37° C. for 4 days. Almar blue dye which is an indicative of active respiration was then added to individual sample to access the toxicity of the drugs. The hepatotoxic potential of a drug is expressed in terms of Minimum Toxic Dose (MTD) which is defined as minimum concentration of a drug which brings about inhibition of colour change from blue to pink."}, "MRSE STE-22": {"tested_on": "MRSE STE-22", "experiment": "In-vitro antimicrobial activity test (MIC, NCCLS)", "type": "cell-based, Staphylococcus epidermidis", "description": "as §1"}, "Bacteroides fragilis": {"tested_on": "Bacteroides fragilis", "experiment": "In-vitro antimicrobial activity test (MIC, NCCLS)", "type": "cell-based", "description": "as §1"}, "[4]": {"tested_on": "Viridans group Streptococci", "experiment": "In-vitro antimicrobial activity test (MIC, NCCLS)", "type": "cell-based", "description": "as §1"}, "[5]": {"tested_on": "Enterococcus faecalis ATCC 29212", "experiment": "In-vitro antimicrobial activity test (MIC, NCCLS)", "type": "cell-based", "description": "as §1"}, "Propioni bacterium acnes": {"tested_on": "Propioni bacterium acnes", "experiment": "In-vitro antimicrobial activity test (MIC, NCCLS)", "type": "cell-based", "description": "as §1"}, "Pseudomonas aeruginosa": {"tested_on": "Pseudomonas aeruginosa", "experiment": "In-vitro antimicrobial activity test (MIC, NCCLS)", "type": "cell-based", "description": "as §1"}, "Enterococcus faecium": {"tested_on": "Enterococcus faecium", "experiment": "In-vitro antimicrobial activity test (MIC, NCCLS)", "type": "cell-based", "description": "as §1"}, "[6]": {"tested_on": "Escherichia coli ATCC 25922", "experiment": "In-vitro antimicrobial activity test (MIC, NCCLS)", "type": "cell-based", "description": "as §1"}, "Serratia marcescens": {"tested_on": "Serratia marcescens", "experiment": "In-vitro antimicrobial activity test (MIC, NCCLS)", "type": "cell-based", "description": "as §1"}, "[7]": {"tested_on": "Staphylococcus aureus ATCC 25923", "experiment": "In-vitro antimicrobial activity test (MIC, NCCLS)", "type": "cell-based", "description": "as §1"}, "Corynebacterium jeikeium": {"tested_on": "Corynebacterium jeikeium", "experiment": "In-vitro antimicrobial activity test (MIC, NCCLS)", "type": "cell-based", "description": "as §1"}, "[8]": {"tested_on": "Mycobacterium tuberculosis ATCC 27294", "experiment": "In-vitro antimicrobial activity test (MIC, NCCLS)", "type": "cell-based", "description": "as §1"}, "[9]": {"tested_on": "Mycobacterium intracellulare", "experiment": "In-vitro antimicrobial activity test (MIC, NCCLS)", "type": "cell-based", "description": "as §1"}, "Mycobacterium avium": {"tested_on": "Mycobacterium avium", "experiment": "In-vitro antimicrobial activity test (MIC, NCCLS)", "type": "cell-based", "description": "as §1"}, "[10]": {"tested_on": "Streptococcus pneumoniae ATCC 6303", "experiment": "In-vitro antimicrobial activity test (MIC, NCCLS)", "type": "cell-based", "description": "as §1"}, "Streptococcus pyogenes": {"tested_on": "Streptococcus pyogenes", "experiment": "In-vitro antimicrobial activity test (MIC, NCCLS)", "type": "cell-based", "description": "as §1"}, "Haemophilus influenzae": {"tested_on": "Haemophilus influenzae", "experiment": "In-vitro antimicrobial activity test (MIC, NCCLS)", "type": "cell-based", "description": "as §1"}, "[11]": {"tested_on": "Chryseobacterium meningosepticum", "experiment": "In-vitro antimicrobial activity test (MIC, NCCLS)", "type": "cell-based", "description": "as §1"}, "[12]": {"tested_on": "Gram-positive pathogens such as staphylococci and enterococci, and Gram-negative pathogens such as E.coli, Klebsiella, Proteus, Serratia, Citrobacter, and …", "experiment": "Antibacterial potency (MIC) at acidic pH of 5.5, summary", "type": "cell-based", "conditions": "acidic pH of 5.5, some organisms"}, "P. rettgeri N 1764": {"tested_on": "P. rettgeri N 1764", "experiment": "Effect of pH on potency of fluoroquinolones (MIC at pH 5.5 and 7.0)", "type": "cell-based", "conditions": "MIC pH 7 vs pH 5.5", "description": "(§2) The test method was in accordance with the standard NCCLS protocol employing test media adjusted at pH 5.5 and 7.0."}, "Serratia marcescens 2702": {"tested_on": "Serratia marcescens 2702", "experiment": "Effect of pH on potency of fluoroquinolones (MIC at pH 5.5 and 7.0)", "type": "cell-based", "conditions": "MIC pH 7 vs pH 5.5", "description": "as §2"}, "[13]": {"conditions": "in vivo"}, "[14]": {"experiment": "Acute intravenous toxicity in mice", "conditions": "acute intravenous, mice"}, "[15]": {"tested_on": "S.aureus strain bearing Nor A efflux pump", "type": "cell-based", "conditions": "Nor A efflux pump strain vs strain devoid of efflux pump", "protocol": "Using this set of MIC values, % loss in potency due to efflux was calculated for each of the fluoroquinolone in Table 5"}, "[16]": {"conditions": "mouse, in vivo"}, "in vivo": {"experiment": "in vivo", "parameters": "species or system Swiss mice", "conditions": "mouse", "protocol": "The blood levels of RS-(±)-Nadifloxacin and S-(−)-Nadifloxacin administered orally to Swiss mice at a dose of 30mg/kg are shown in Table 3 with respect to the AUC (μg/ml.hr), monitored from 15 minutes to 4 hours."}, "[17]": {"tested_on": "Gram-positive and Gram-negative bacteria", "conditions": "cited from earlier work"}}, "note": "Marks after values point to notes of the source that are not given here.", "data": [{"smiles": "CC(=O)O.C[C@@H](N)C(=O)OC1CCN(c2c(F)cc3c(=O)c(C(=O)O)cn4c3c2CC[C@@H]4C)CC1", "note": "[Example 30, 8-{4-[2(R)-Amino-propionyloxy]piperidin-1-yl}-9-fluoro-5(S)-methyl-6,7-dihydro-1-oxo-1H,5H-benzo[i,j]quinolizine-2-carboxylic acid, acetate]", "values": [{"measurement": "Water solubility", "setting": "[1]", "result": ">250", "unit": "mg/mL"}]}, {"smiles": "C[C@H]1CCc2c(N3CCC(O)CC3)c(F)cc3c(=O)c(C(=O)O)cn1c23", "note": "[S-(−)-Nadifloxacin, S-(−)-9-fluoro-8-(4-hydroxy-piperidin-1-yl)-5-methyl-6,7-dihydro-1-oxo-1H,5H benzo[i,j]quinolizine-2-carboxylic acid]", "values": [{"measurement": "MIC", "setting": "MRSA STA-4", "result": 0.4, "unit": "µg/mL"}, {"measurement": "MIC", "setting": "[2]", "result": 0.4, "unit": "µg/mL"}, {"measurement": "dosage tolerated by Hep-G-2 cells, times higher than trovafloxacin", "setting": "[3]", "result": 4, "unit": "times"}, {"measurement": "MIC", "setting": "MRSE STE-22", "result": 0.4, "unit": "µg/mL"}, {"measurement": "MIC", "setting": "Bacteroides fragilis", "result": 0.8, "unit": "µg/mL"}, {"measurement": "MIC", "setting": "[4]", "result": 0.2, "unit": "µg/mL"}, {"measurement": "MIC", "setting": "[5]", "result": 0.2, "unit": "µg/mL"}, {"measurement": "MIC", "setting": "Propioni bacterium acnes", "result": 0.1, "unit": "µg/mL"}, {"measurement": "MIC", "setting": "Pseudomonas aeruginosa", "result": 1.56, "unit": "µg/mL"}, {"measurement": "MIC", "setting": "Enterococcus faecium", "result": 0.4, "unit": "µg/mL"}, {"measurement": "MIC", "setting": "[6]", "result": 0.2, "unit": "µg/mL"}, {"measurement": "MIC", "setting": "Serratia marcescens", "result": 0.4, "unit": "µg/mL"}, {"measurement": "MIC", "setting": "[7]", "result": 0.025, "unit": "µg/mL"}, {"measurement": "MIC", "setting": "Corynebacterium jeikeium", "result": 0.05, "unit": "µg/mL"}, {"measurement": "MIC", "setting": "[8]", "result": 0.8, "unit": "µg/mL"}, {"measurement": "MIC", "setting": "[9]", "result": 1.56, "unit": "µg/mL"}, {"measurement": "MIC", "setting": "Mycobacterium avium", "result": 3.12, "unit": "µg/mL"}, {"measurement": "MIC", "setting": "[10]", "result": 0.2, "unit": "µg/mL"}, {"measurement": "MIC", "setting": "Streptococcus pyogenes", "result": 0.2, "unit": "µg/mL"}, {"measurement": "MIC", "setting": "Haemophilus influenzae", "result": 0.025, "unit": "µg/mL"}, {"measurement": "MIC", "setting": "[11]", "result": 0.8, "unit": "µg/mL"}, {"measurement": "MIC improves by", "setting": "[12]", "result": 100, "unit": "%"}, {"measurement": "% change in potency at pH 5.5, loss (−)/gain (+)", "setting": "P. rettgeri N 1764", "result": 0.00, "unit": "%"}, {"measurement": "% change in potency at pH 5.5, loss (−)/gain (+)", "setting": "Serratia marcescens 2702", "result": 0.00, "unit": "%"}, {"measurement": "phototoxicity potential", "setting": "[13]", "result": "negligible phototoxicity potential"}, {"measurement": "LD50", "setting": "[14]", "result": ">400* mg/kg"}, {"measurement": "% loss in potency for S. aureus bearing Efflux pump", "setting": "[15]", "result": 0, "unit": "%"}, {"measurement": "acute intravenous toxicity compared with RS-(±)-Nadifloxacin", "setting": "[16]", "result": "significantly lower"}, {"measurement": "oral bioavailability, times higher than RS-(±)-Nadifloxacin", "setting": "in vivo", "result": 2, "unit": "times"}, {"measurement": "AUC", "setting": "in vivo; po, 30 mg/kg", "result": 33580, "unit": "ng·h/mL"}, {"measurement": "in-vitro activity compared with racemic Nadifloxacin", "setting": "[17]", "result": "approximtely twice as active"}]}]}
